# Entries after “also recorded” stand apart in the source; their conditions may differ.
# Experiments:
# Assay type in all cases: in vivo, mouse
# [1] = test system: hypoxia-induced pulmonary hypertension in C57BL/6 male mice; experiment: Treatment of hypoxia-induced pulmonary hypertension (dosing from Day 14 of hypoxia); conditions: dosing Days 14-21 of hypoxia; for Pulmonary Artery Cross-Sectional Area (PA CSA) / Right Ventricular Free Wall (RVFW) Thickening: 21st day; for Pulmonary Artery Cross-Sectional Area (PA CSA): FIG. 6; for Right Ventricular Free Wall (RVFW) Thickening: FIG. 7
# Protocol: In this Example, the ability of anti-big-ET-1 antibody […] to treat hypoxia-induced pulmonary hypertension in mouse was evaluated. Experimental group animals were subjected to hypoxic conditions for 21 days (Day 1-21) and dosed with […], Bosentan, or control isotype antibody starting on Day 14. At Day 21, animals were evaluated using ultrasound images and measurements of ventricular pressures and cardiac hypertrophy (see Evaluation Materials and Methods in Example 7) and compared to control animals (maintained under normoxic conditions, hypoxia for 14 days, or hypoxia for 14 days followed by normoxia for 7 days). […] C57BL/6 male mice (10-11 weeks old) were weighed and treated or treated and dosed over a course of 21 days as outlined in Table 10. Bosentan was administered orally (PO); anti-big-ET-1 antibody […] and isotype control antibody were administered subcutaneously (SC). Body weights were consistent between groups over the course of this study. Bosentan, an orally active non-selective antagonist of endothelin receptor-A and -B, was used as a positive control while an irrelevant isotype-matched antibody served as the negative control. All procedures were approved by the Regeneron Institutional Animal Care and Use Committee (IACUC). Non-invasive ultrasound scanning was performed to determine pulmonary artery cross-sectional area (PA CSA), right ventricle cardiac output (RV CO) and right ventricular free wall thickness (RVFW) on the 21st day of hypoxia. Right ventricular diastolic and systolic pressures were acquired using a high-fidelity pressure catheter (Mikro-Tip®, Millar Instruments) in the right ventricle; in addition, right ventricular hypertrophy measurements (i.e., weight ratio of right ventricle-to-left ventricle+septum; Fulton Index) were measured at 21 days of hypoxia.
# [2] = test system: bleomycin-induced pulmonary fibrosis in C57BL/6 male mice; conditions: 20 days post bleomycin; vs vehicle or isotype control
# [3] = test system: bleomycin-induced pulmonary fibrosis in C57BL/6 male mice
# Protocol: Bleomycin-induced lung injury was used to model pulmonary fibrosis in 10-week-old C57BL/6 male mice. Bleomycin sulfate was administered via a single oropharyngeal dose (3.2 U/kg (2.0 mg/kg) in a 2.0 ml/kg volume). Untreated control mice received a transoral instillation of sterile 0.9% saline (2.0 ml/kg). Bosentan, an orally active non-selective antagonist of endothelin receptor-A and -B, was used as a positive control for treatment, while vehicle and an irrelevant isotype matched antibody served as negative controls. Mice were allocated to treatment or control groups with dosing regimens as outlined in Table 11.
# Each cage was randomly assigned to a therapeutic treatment group so all mice in the cage received the same treatment. Initial average body weight for each treatment group was similar. Daily body weights were recorded throughout the study. Group body weight average and percent change were analyzed and graphed.
# Administration of bleomycin or saline was performed while animals were under anesthesia (isoflurane at a 3.5% to 2-liters/min oxygen flow rate). Sedated mice were placed on a 60-degree tilt board, head up with an elastic band around the incisors. A small cotton tip was used to roll tongue out of the mouth then forceps were used to hold tongue and to open the jaw. During a heavy inhalation, fluid was pipetted into the mouth. Tongue and jaw positions were maintained while mouse remained on the tilt board. Approximately 20 seconds elapsed after pipetting for fluid to disappear and “wheezing” to stop. After treatment instillation, mice were group-housed by treatment conditions (5 animals per cage) in disposable cages for 7 days because of excreted biohazard and then returned to home cages. Disposable cages differed from home cages only by use of a cage top bottle for water instead of use of Thoren rack watering system. All mice were housed in colony on 12 hr (7 am-7 pm) light-dark cycle.
# Bosentan was administered by oral gavage twice daily (9:30 am and 6:30 pm) during the week. The initial pretreatment dose and weekend day doses were administered as a single combined BID. As outlined in Table 11, Bosentan dosing continued daily through day 20 of study while antibodies and vehicle were subcutaneously dosed every 3 days through day 18.
# Pulmonary function was gauged by measuring arterial oxygen saturation using the Starr Life Sciences, MouseOx small animal vital signs monitor. Measurements were taken around the neck region following hair removal on Days 14 and 17. The MouseOx can monitor the cardio-pulmonary health and degree of lung injury by measuring the level of oxygen carried to the tissues on hemoglobin molecules in red blood cells. A throat collar sensor was used to measure arterial oxygen saturation via the carotid artery in conscious mice. Mice were lightly restrained by hand to confine subject to the cage top food hopper and to reduce movement. […] Once a continuous 15 second block is recorded, the software calculates the average of the above parameters. […] An average arterial oxygen saturation for each treatment group was calculated and analyzed using one-way ANOVA with Bonferroni post-test comparisons of all treatment groups.
# On Day 21, mice were administered a terminal dose of Ketamine/Xylazine (120 mg/kg/5 mg/kg IP, respectively). […] Wet and dry lung weights and wet wt. to dry wt. ratios were calculated for each treatment group. […]
# [4] = test system: hypoxia-induced pulmonary hypertension in C57BL/6 male mice; experiment: Blocking/prevention of hypoxia-induced pulmonary hypertension (dosing prior to and during hypoxia); conditions: 18th day of hypoxia
# Protocol: Ultrasound measurements were acquired using the following protocol. Mice were anesthetized, placed in a supine position on a heated platform (THM 100, Indus Instruments) and 2D imaging of the pulmonary infundibulum (B- and M-mode) was carried out using a Vevo 2100 ultrasound system (VisualSonics). Images were obtained from the parasternal short-axis view at the level of the aortic valve. Pulsed-wave Doppler measurements were obtained at the tip of the pulmonary valve leaflets once the scanhead was aligned for maximal laminar flow. In addition, M-mode recordings of the right ventricle were acquired at the short axis B-mode imaging plane to obtain right ventricular free-wall dynamics through the cardiac cycle.
# Ultrasound data analysis, performed in a blinded manner, analyzed the following parameters: Diastolic and systolic right ventricular free-wall thickness (RVFW, short axis M-mode), pulmonary artery diameter at end-systole (short axis B-mode), and pulmonary artery flow (PA flow, PW Doppler). From these measurements, time-velocity integral of pulmonary flow, pulmonary artery cross-sectional area (PA CSA), and right ventricle cardiac output (RV CO) were calculated. Means and standard errors of the mean were calculated for measurements at each time point, for each treatment group. All measurements were averaged on 3 cardiac cycles. Right ventricular pressures at 21 days of hypoxia were recorded using the following protocol: Mice were anesthetized, placed in the supine position on a heated platform (Water-jacketed pad heated with a Gaymar heating pump) and an incision over the right common carotid artery and right jugular vein was made isolating the right jugular taking care not to damage the carotid artery and/or the Vagus nerve. […]
# Right ventricular systolic pressure analysis was conducted using LabChart Pro software (ADInstruments) at approximately 60 second intervals of pressure tracing (following a 2 minute period of recording to allow for pressure stabilization). The parameters analyzed were RV diastolic and systolic pressures, heart rate and animal temperature. […]
structure (smiles),measurement,setting,value
"COc1ccccc1Oc1c(NS(=O)(=O)c2ccc(C(C)(C)C)cc2)nc(-c2ncccn2)nc1OCCO [Bosentan, reference compound]",Pulmonary Artery Cross-Sectional Area (PA CSA),[1],significantly reverse the reduction in pulmonary artery cross-sectional area
same,Pulmonary Artery Cross-Sectional Area (PA CSA),[1]; listed as bosentan,lessened lumen diameter loss
same,Right Ventricular Free Wall (RVFW) Thickening,[1],significantly reverse right ventricular free wall (RVFW) thickening
same,Right Ventricular Free Wall (RVFW) Thickening,[1]; listed as bosentan,attenuated right ventricular free wall (RVFW) thickening
same,Distal Pulmonary Arteriole Wall Thickening,[1]; FIG. 5,significantly reverses distal pulmonary arteriole wall thickening
same,Right Ventricular Cardiac Output (RV CO),[1]; FIG. 9,Greater preservation of RV CO in bosentan-treated vs antibody-treated animals
same,Right Ventricular Systolic Pressure (RVSP),[1]; FIG. 10,tends to reduce the RVSP
same,arterial blood oxygen saturation (in words),[2],tended to restore arterial blood oxygen saturation closer to baseline levels
same,lung wet weights (in words),"[3]; 21 days post bleomycin, vs isotype control",showed statistically significant reductions in wet lung weights
same,Wet Weight Rt. Lung (mg) AVG ± SEM,"[3]; bleomycin 3.2 U/kg, 21 days post bleomycin",117 ± 6 mg
same,% Arterial Blood 02 Saturation AVG ± SEM,"[3]; bleomycin 3.2 U/kg, MouseOx throat collar sensor",93 ± 1%
same,Total Collagen Rt. Lung (ug) AVG ± SEM,"[3]; bleomycin 3.2 U/kg, Sircol soluble collagen, Day 21",403 ± 38 µg
same,collagen accumulation in the lung (in words),[3]; post bleomycin exposure,reduced collagen accumulation in the lung
same,Pulmonary Artery Cross-Sectional Area (PA CSA),"[4]; H4H6327P2 25 mg/kg SC every 3 days, Bosentan 300 mg/kg PO SID, FIG. 1",showed a similar yet reduced capacity to maintain basal PA CSA; also recorded: significantly lessen the reduction in PA CSA
same,Right Ventricular Cardiac Output (RV CO),"[4]; preventive dosing, FIG. 2",showed a greater preservation of RV CO compared to the vehicle-treated group
same,"Right Ventricular Free Wall Thickness, systole (RVFW,s)","[4]; preventive dosing, FIG. 4",tends to reduce (not significant) the thickening of the RVFW
